The values below come from US12286429B2, “5-oxo-1,2,3,5,8,8a-hexahydroindolizine-3-carboxamide derivatives useful as a factor XIa inhibitors” (Janssen Pharmaceutica NV, priority 2021, dated 2025).

The target in one experiment is Factor XIa (Homo sapiens, UniProt P03951). The experiment can be described thus: Factor XIa inhibition assay utilizing a fluorophore-quencher pair peptide substrate (FLINT). As to conditions: 11-point, 3-fold serial dilution, top 100 nM; 30 min preincubation; 15 μM 5Fam-KLTRAETV-K5Tamra substrate; kinetic reads over 30 min; read-out: FXIa Inhibition IC50. The format is biochemical. The source says:
Biological Example 1: Factor XIa Inhibition Assay Utilizing a Fluorophore-Quencher Pair Peptide Substrate
A fluorescence intensity (FLINT) based assay was used to monitor inhibition of Factor XIa. The peptide substrate, 5Fam-KLTRAETV-K5Tamra (purchased from New England Peptide) was chosen based on the FXI sequence. Conversion of zymogen FXI to its activated form, FXIa, occurs by proteolytic cleavage by […] at two sites, Arg146 and Arg180. The custom peptide used in this assay was based on the Arg146 cleavage site of FXI. The peptide substrate was designed with a fluorophore-quencher pair, where the fluorescence is quenched until FXIa cleaves the 8-mer peptide after the Arg residue.
The Factor XIa FLINT assay was used with the following 5Fam-KLTRAETV-K5Tamra assay buffer: 50 mM Tris, pH 7.5, 100 mM NaCl, 5 mM CaCl2, 0.1 mg/mL BSA, 0.03% CHAPS. Assay buffer was prepared by mixing all ingredients fresh. 5Fam-KLTRAETV-K5Tamra peptide substrate was first prepared at 10 mM in 100% DMSO, then diluted to 3 mM in 100% DMSO. Assay buffer was then added directly to the 3 mM stock of substrate to prepare the 30 μM 2× working concentration (15 μM final concentration). The 2× Factor XIa stock solution was prepared by diluting 6.562 μM stock in 1× assay buffer for a […].
Test compound(s) were run in an 11-point, 3-fold serial dilution with a final top compound concentration of 100 nM. Final DMSO in assay was 2%. FXIa was preincubated with compound for 30-minutes and then substrate was added to initiate the reaction. The assay was run with kinetic (KIN) reads at 5 min intervals over 30 minutes. […] More specifically, the assay was run as follows: • 100 nL of 0.01 mM test compound was dispensed into black 384-well non-binding Greiner BioOne 784900 plate for 0.1 μM final concentration, • 5 μL of 1× assay buffer was dispensed to column 24 (low control) and 5 μL 2× Factor XIa solution was dispensed to columns 1-23 (column 23 high control); • the plate was centrifuged with a “cover” plate at 500 rpm for 1 min • the plate was pre-incubated for 30 minutes at room temperature with plate covered; • 5 μL of 2×5Fam-KLTRAETV-K5Tamra peptide substrate was dispensed into the entire plate, columns 1-24; • the plate was centrifuged with a “cover” plate at 500 rpm for 1 min; • the plate was read monitoring fluorescence intensity on the BMG PHERAStar at room temperature, using fluorescence module 485 nm/520 nm.
(§1) Percent inhibition (IC50) curves were generated per compound tested, and data was analyzed using a 4-parameter logistic fit using GeneData Screener. The relative fluorescence unit (RFU) values were normalized to percent inhibition using the following equation: % inhibition=((HC−LC)−(compound−LC)/(HC−LC))*100
where LC—low control=mean signal of no Factor XIa or 100% inhibition of Factor XIa; HC—high control=mean signal of Factor XIa+5Fam-KLTRAETV-K5Tamra peptide substrate with DMSO only.
(§2) An 11-point dose response curve for the test compound(s) was generated using GENDATA to determine IC50 value based on the following equation: Y=Bottom+(Top−Bottom)/(1+10^((log IC50−X)*HillSlope))
where Y is the % inhibition in the presence of X inhibitor concentration, Top=high control=mean signal of Factor XIa+5Fam-KLTRAETV-K5Tamra peptide substrate with DMSO only; Bottom=low control—mean signal of no Factor XIa or 100% inhibition of Factor XIa; HillSlope—Hill coefficient; and IC50=concentration of compound with 50% inhibition in relation to top/high control.

Another experiment deals with human plasma kallikrein (Homo sapiens, UniProt P03952). The experiment can be described thus: Kallikrein inhibition assay utilizing a quenched AMC peptide substrate (FLINT). To be noted: 11-point, 3-fold serial dilution, top 1 μM; 30 min preincubation; 2 nM kallikrein; 50 μM Z-Gly-Pro-Arg-AMC; kinetic reads over 30 min. The class given is biochemical. How it is done: Biological Example 2: Kallikrein Inhibition Assay Utilizing a Quenched AMC Peptide Substrate
A fluorescence intensity (FLINT) based assay was used to monitor inhibition of human plasma kallikrein. The peptide substrate, Z-Gly-Pro-Arg-AMC (Purchased from Bachem; Catalog #I-1150) was chosen based on its relatively low KM for kallikrein which enables running the assay at lower substrate concentrations to control background fluorescence. The kinetic parameters for this substrate were determined by fitting titration data to the Michaelis-Menten equation yielding a KM=40 μM, kcat=0.76 s^−1, and kcat/KM=18932 M^−1s^−1.
The Kallikrein FLINT assay was used with the following Z-Gly-Pro-Arg-AMC assay buffer: 50 mM Tris, pH 7.5, 100 mM NaCl, 5 mM CaCl2, 0.1 mg/mL BSA, 0.03% CHAPS. Assay buffer was prepared by mixing all ingredients fresh. 2× Z-Gly-Pro-Arg-AMC peptide substrate was prepared by diluting 10 mM stock into 1× assay buffer for a 100 μM working concentration (50 μM final concentration). The 2× kallikrein stock solution was prepared by diluting 14.76 μM stock in 1× assay buffer for a 4 nM working stock solution (2 nM final concentration).
Test compound(s) were run in an 11-point, 3-fold serial dilution with a final top compound concentration of 1 μM. Final DMSO in assay was 2%. Plasma kallikrein was pre-incubated for 30-minute with compound and then 50 μM substrate was added to initiate the reaction. The assay was run with kinetic (KIN) reads at 5 min intervals over 30 minutes. The time course was linear using 2 nM kallikrein greater than 30 minutes. More specifically, the assay was run as follows: • 100 nL of 0.1 mM test compound was dispensed into black 384-well non-binding Greiner BioOne 784900 plate for 1 μM final concentration; • 5 μL of 1× assay buffer was dispensed to columns 24 (low control) and 5 μL 2× human kallikrein enzyme solution was dispensed to columns 1-23 (column 23 high control); • the plate was centrifuged with a “cover” plate at 500 rpm for 1 min • the plate was pre-incubated for 30 minutes at room temperature with plate covered; • 5 μL of 2× Z-Gly-Pro-Arg-AMC peptide substrate was dispensed into the entire plate, columns 1-24; • the plate was centrifuged with a “cover” plate at 500 rpm for 1 min; • the plate was read monitoring fluorescence intensity on the BMG PHERAStar at room temperature, using fluorescence module 340 nm/440 nm.
as §1
where LC—low control=mean signal of […] 100% inhibition of human kallikrein enzyme; HC—high control=mean signal of […]+Z-Gly-Pro-Arg-AMC peptide substrate with DMSO only.
as §2
where Y is the % inhibition in the presence of X inhibitor concentration, Top=high control=mean signal of human kallikrein enzyme+Z-Gly-Pro-Arg-AMC peptide substrate with DMSO only; Bottom=low control—mean signal of no human kallikrein enzyme or 100% inhibition of human kallikrein enzyme; HillSlope—Hill coefficient; and IC50=concentration of compound with 50% inhibition in relation to top/high control.

human plasma kallikrein, sequence (P03952 391-638 limits assumed): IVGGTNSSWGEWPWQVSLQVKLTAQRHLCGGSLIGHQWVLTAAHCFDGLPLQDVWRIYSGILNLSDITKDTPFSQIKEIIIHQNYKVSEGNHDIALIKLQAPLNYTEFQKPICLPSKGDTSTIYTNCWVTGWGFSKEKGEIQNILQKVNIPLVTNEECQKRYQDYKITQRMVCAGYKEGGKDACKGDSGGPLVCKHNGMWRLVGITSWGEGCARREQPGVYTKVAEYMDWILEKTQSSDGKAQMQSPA
human plasma kallikrein, sequence (P03952 20-390 partner limits assumed): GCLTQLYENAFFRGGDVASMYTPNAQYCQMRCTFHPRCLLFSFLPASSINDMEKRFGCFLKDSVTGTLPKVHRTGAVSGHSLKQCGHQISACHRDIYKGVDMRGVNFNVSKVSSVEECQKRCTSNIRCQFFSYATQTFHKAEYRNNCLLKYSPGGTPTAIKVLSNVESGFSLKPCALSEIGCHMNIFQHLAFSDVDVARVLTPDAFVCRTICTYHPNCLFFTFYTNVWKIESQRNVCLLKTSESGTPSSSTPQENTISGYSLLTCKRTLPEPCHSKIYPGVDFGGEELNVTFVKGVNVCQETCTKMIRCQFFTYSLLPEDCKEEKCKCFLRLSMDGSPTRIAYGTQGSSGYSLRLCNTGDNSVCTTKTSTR
Factor XIa, sequence (P03951 388-625 limits assumed): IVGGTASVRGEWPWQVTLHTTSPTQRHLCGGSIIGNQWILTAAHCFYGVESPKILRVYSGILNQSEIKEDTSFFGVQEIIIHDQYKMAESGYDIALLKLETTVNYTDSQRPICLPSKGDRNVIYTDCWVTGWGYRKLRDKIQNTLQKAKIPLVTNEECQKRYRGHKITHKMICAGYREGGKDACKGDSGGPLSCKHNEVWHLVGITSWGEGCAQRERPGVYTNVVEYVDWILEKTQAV
Factor XIa, sequence (P03951 19-387 partner limits assumed): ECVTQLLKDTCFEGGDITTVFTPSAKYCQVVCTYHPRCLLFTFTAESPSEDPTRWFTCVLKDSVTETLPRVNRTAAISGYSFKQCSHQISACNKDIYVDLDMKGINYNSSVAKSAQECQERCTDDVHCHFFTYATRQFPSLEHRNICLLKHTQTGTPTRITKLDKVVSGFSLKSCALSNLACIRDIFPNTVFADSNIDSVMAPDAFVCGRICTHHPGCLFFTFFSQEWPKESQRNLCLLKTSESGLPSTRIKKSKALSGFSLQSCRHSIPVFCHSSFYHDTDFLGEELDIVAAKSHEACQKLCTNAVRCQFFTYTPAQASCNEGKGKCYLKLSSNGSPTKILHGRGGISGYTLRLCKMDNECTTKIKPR

Usually IC50 stands for the concentration at which inhibition is half-maximal. Turning to `C[C@H]1C[C@@H](C(=O)Nc2ccc3nccnc3c2)N2C(=O)C=C(c3c(-n4cnnn4)ccc(Cl)c3F)C[C@H]12` (single isomer, unassigned) [ID No. 80, (1S*,3S,8aR*)-7-[3-Chloro-2-fluoro-6-(tetrazol-1-yl)phenyl]-1-methyl-5-oxo-N-quinoxalin-6-yl-2,3,8,8a-tetrahydro-1H-indolizine-3-carboxamide], the IC50 at Factor XIa came to 45.9 nM; against human plasma kallikrein, 59.5 nM.
On the same counts, the results for `Cn1nncc1-c1ccc(NC(=O)[C@@H]2CCC3CC(c4c(-n5cnnn5)ccc(Cl)c4F)=CC(=O)N32)cc1` (mixture of isomers) [ID No. 71, (3S)-7-[3-Chloro-2-fluoro-6-(tetrazol-1-yl)phenyl]-N-[4-(3-methyltriazol-4-yl)phenyl]-5-oxo-2,3,8,8a-tetrahydro-1H-indolizine-3-carboxamide] are 46 nM and 156 nM.
On the same counts, the results for `CC1C[C@@H](C(=O)Nc2ccc3nn(C)cc3c2)N2C(=O)C=C(c3c(-n4cnnn4)ccc(Cl)c3F)CC12` (mixture of isomers) [ID No. 83, (3S)-7-[3-Chloro-2-fluoro-6-(tetrazol-1-yl)phenyl]-1-methyl-N-(2-methyl-2H-indazol-5-yl)-5-oxo-2,3,8,8a-tetrahydro-1H-indolizine-3-carboxamide] are 17.8 nM and 27 nM.
As to `O=C(O)c1[nH]c2ccc(NC(=O)[C@@H]3CCC4CC(c5c(-n6cnnn6)ccc(Cl)c5F)=CC(=O)N43)cc2c1F` (mixture of isomers) [ID No. 26, 5-[[(3S)-7-[3-Chloro-2-fluoro-6-(tetrazol-1-yl)phenyl]-5-oxo-2,3,8,8a-tetrahydro-1H-indolizine-3-carbonyl]amino]-3-fluoro-1H-indole-2-carboxylic acid], the values for the IC50 on Factor XIa and on human plasma kallikrein were 3.2 nM and 60.4 nM, respectively.
The like results for `[2H]c1nnnn1-c1ccc(Cl)c(F)c1C1=CC(=O)N2C(CCC2C(=O)Nc2ccc3c(c2)C2(CC2)C(=O)N3)C1` (stereo not drawn) [compound 96] were, in that order, 42.2 nM and 128 nM.
The like results for `O=C(Nc1ccc(-c2nc(=O)o[nH]2)cc1)[C@@H]1CCC2CC(c3c(-n4cnnn4)ccc(Cl)c3F)=CC(=O)N21` (single isomer, unassigned) [ID No. 63, (3S,8aR*)-7-[3-Chloro-2-fluoro-6-(tetrazol-1-yl)phenyl]-5-oxo-N-[4-(5-oxo-2H-1,2,4-oxadiazol-3-yl)phenyl]-2,3,8,8a-tetrahydro-1H-indolizine-3-carboxamide] were, in that order, 0.6 nM and 20.3 nM.
On the same counts, the results for `NC(=O)c1ccc(NC(=O)[C@@H]2CC[C@@H]3CC(c4cc(Cl)ccc4-n4cc(C(F)(F)F)nn4)=CC(=O)N32)cc1F` [ID No. 25, (3S,8aR)—N-(4-Carbamoyl-3-fluorophenyl)-7-(5-chloro-2-(4-(trifluoromethyl)-1H-1,2,3-triazol-1-yl)phenyl)-5-oxo-1,2,3,5,8,8a-hexahydroindolizine-3-carboxamide] are 28.1 nM and 116 nM.
Consider `O=C(Nc1ccc(-c2ncc[nH]2)cc1)[C@@H]1CCC2CC(c3c(-n4cnnn4)ccc(Cl)c3F)=CC(=O)N21` (mixture of isomers) [ID No. 74, (3S)-7-[3-Chloro-2-fluoro-6-(tetrazol-1-yl)phenyl]-N-[4-(1H-imidazol-2-yl)phenyl]-5-oxo-2,3,8,8a-tetrahydro-1H-indolizine-3-carboxamide], for which the IC50 at Factor XIa was found to be 2 nM; on human plasma kallikrein it was 40.7 nM.
The like results for `O=C(Nc1ccc(-c2nnn[nH]2)cc1)[C@@H]1CC[C@H]2CC(c3c(-n4cnnn4)ccc(Cl)c3F)=CC(=O)N21` (single isomer, unassigned) [ID No. 65, (3S,8aS*)-7-[3-Chloro-2-fluoro-6-(tetrazol-1-yl)phenyl]-5-oxo-N-[4-(1H-tetrazol-5-yl)phenyl]-2,3,8,8a-tetrahydro-1_H-indolizine-3-carboxamide] were, in that order, 1.9 nM and 36.6 nM.
The like results for `O=C(O)c1ccc(NC(=O)[C@@H]2CC[C@@H]3CC(c4c(-n5cnnn5)ccc(Cl)c4F)=CC(=O)N32)cc1F` (single isomer, unassigned) [ID No. 52, (3S,8R*)-4-[[7-[3-Chloro-2-fluoro-6-(tetrazol-1-yl)phenyl]-5-oxo-2,3,8,8a-tetrahydro-1H-indolizine-3-carbonyl]amino]-2-fluoro-benzoic acid] were, in that order, 0.9 nM and 70.8 nM.
The like results for `CC1C[C@@H](C(=O)Nc2ccc3ncccc3c2)N2C(=O)C=C(c3c(-n4cnnn4)ccc(Cl)c3F)CC12` (mixture of isomers) [ID No. 82, (3S)-7-[3-Chloro-2-fluoro-6-(tetrazol-1-yl)phenyl]-1-methyl-5-oxo-N-(6-quinolyl)-2,3,8,8a-tetrahydro-1H-indolizine-3-carboxamide] were, in that order, 7.9 nM and 8 nM.
`Nc1noc2cc(NC(=O)[C@@H]3CCC4CC(c5c(-n6cnnn6)ccc(Cl)c5F)=CC(=O)N43)ccc12` (single isomer, unassigned) [ID No. 60, (3S,8aR*)—N-(3-Amino-1,2-benzoxazol-6-yl)-7-[3-chloro-2-fluoro-6-(tetrazol-1-yl)phenyl]-5-oxo-2,3,8,8a-tetrahydro-1H-indolizine-3-carboxamide]: the IC50 at Factor XIa turned out to be 6.7 nM; at human plasma kallikrein, 29.7 nM.
